Experimental data as given in article PMC3835742, “Lack of Plasma Kallikrein-Kinin System Cascade in Teleosts” (PLoS ONE, 2013).
Entries after “also recorded” stand apart in the source; their conditions may differ.

Experiments:
[1] = tested on: polyclonal antiserum for [Arg^0]-BK; experiment: Radioimmunoassay (RIA) for [Arg^0, Trp^5, Leu^8]-bradykinin; assay type: binding, rabbit; conditions: for crossreactivity in the RIA: relative to [Arg^0]-BK standard, peptides serially diluted in RIA buffer, antiserum 1:10,000, 4 °C, 24 h
Protocol: [Arg^0, Trp^5, Leu^8]-bradykinin ([Arg^0]-BK: RRPPGWSPLR) was synthesized by Phoenix Pharmaceuticals Inc. (Burlingame, CA, USA). [Arg^0]-BK was N-terminally conjugated to thyroglobulin by the glutaraldehyde method. Briefly, 5 mg thyroglobulin was mixed with 1 mg [Arg^0]-BK in 4 mL PBS (pH 7.0) and glutaraldehyde was added to a final concentration of 0.05 %. The mixture was incubated at 25 °C for 1 h with gentle agitation and reaction was stopped by addition of 0.1 mL ethanolamine. The mixture was dialyzed against 1 L PBS overnight at 4 °C and protein concentration was determined. For each injection, 0.2 mg conjugated protein was used and three rabbits were first immunized with the conjugated protein in Freund’s complete adjuvant followed by two booster immunogen injections in Freund’s incomplete adjuvant. The interval between injections was 4 weeks and the rabbits were sacrificed for final bleeds 3 weeks after the third immunization.
Synthetic [Tyr^-1, Arg^0, Trp^5, Leu^8]-bradykinin (YRRPPGWSPLR) was radiolabeled by ^125I using the lactoperoxidase method and the iodinated peptide was purified by an HPLC system. The ^125I-BK was diluted in RIA buffer containing 0.1% RIA-grade bovine serum albumin to produce ~10,000 cpm per assay tube. The titers of the antiserum were determined by serial dilution and maximum binding was adjusted at 20 % of the total binding. […] Unbound fractions were removed by aspiration and specific binding in the pellet was measured using a gamma counter (Perkin Elmer, MA, USA). […]
(§1) To test the degradation rate of [Arg^0]-BK in plasma in vitro, 3 blood samples with inhibitor cocktail were prepared. […] The immunoreactive (ir)-[Arg^0]-BK was measured using the newly established RIA. […] The concentration of [Arg^0]-BK in the HPLC fractions were measured to determine the percentage recovery. Synthetic [Trp^5, Leu^8]-BK (BK) and [Arg^0, Trp^5, des-Leu^8, des-Arg^9]-bradykinin were serially diluted in RIA buffer and measured by RIA to determine the cross-reactivities among these closely related peptides.

[2] = Degradation rate of [Arg^0]-BK in plasma in vitro; assay type: in vitro ADME, Japanese eel; conditions: plasma with inhibitor cocktail (1,10-phenanthroline, potassium EDTA, aprotinin), spiked 3,000 fmol/mL, 25 °C, 0, 10 and 30 min, Sep-Pak extraction, RIA read-out, n = 3, Student t-test p > 0.05
Protocol: (§2) Juvenile, sexually immature Japanese eel (Anguilla japonica; 160 - 220 g), tilapia (Oreochromis niloticus; 50 - 100g), rainbow trout (Oncorhynchus mykiss; 100 - 200 g), and adult medaka of both sex (Oryzias latipes; 1.5 - 2.2 g) were kept in a freshwater recirculating aquarium system in the Atmosphere and Ocean Research Institute, the University of Tokyo. The water was maintained at 12 °C for trout, 18 °C for eel, 25 °C for tilapia, and 27 °C for medaka, and all animals were exposed to a 14/10 h light/dark cycle throughout the experiment. All animal experimental procedures were approved by the Animal Experiment Committee of the University of Tokyo. Fish were anesthetized by 0.1% ethyl 3-aminobenzoate methanesulfonate (Sigma, St. Louis, MO) neutralized with sodium bicarbonate. […]
as §1

[3] = Spiking of pooled plasma, Sep-Pak/HPLC extraction and RIA (recovery and integrity); set-up: species or system Japanese eel; conditions: pooled eel plasma with inhibitor cocktail spiked to 300, 1000, 3000 fmol/mL, ir-BK profile by RIA
Protocol: as §2, with “Tokyo.” for “Tokyo. Fish were anesthetized by 0.1% ethyl 3-aminobenzoate methanesulfonate (Sigma, St. Louis, MO) neutralized with sodium bicarbonate.”
The plasma samples were purified by Sep-Pak C18 cartridge, with equilibration buffer (100 mM Tris-HCl, 0.5 M NaCl, pH 7.4) for binding and absolute methanol for elution. The partially purified plasma was further resolved by a reverse-phase HPLC system (Tosoh PU-980, Tokyo) attached to a UV-absorbance detector (Tosoh, UV-970, Tokyo) and utilizing an analytical column (ODS 100S column, 4.6 mm I.D. x 25 cm, C-18, 5 μm particle size, Tosoh, Tokyo). […]
To test the degradation rate of [Arg^0]-BK in plasma in vitro, 3 blood samples with inhibitor cocktail were prepared. […] The immunoreactive (ir)-[Arg^0]-BK was measured using the newly established RIA. […]

eel = conditions: compared with BK, ref [14]; cited from earlier work

[Arg^0, Trp^5, des-Leu^8, des-Arg^9]-bradykinin [[Arg^0, Trp^5, des-Leu^8, des-Arg^9]-BK]
crossreactivity in the RIA [1]: negligible crossreactivity

[Trp^5, Leu^8]-BK
crossreactivity in the RIA [1]: 71.3%

RRPPGWSPLR [[Arg^0]-BK, [Arg^0, Trp^5, Leu^8]-bradykinin, synthetic teleost decapeptide kinin, […], from Phoenix Pharmaceuticals]
EC50 ([1]; displacement of 125I-[Tyr^-1, Arg^0, Trp^5, Leu^8]-bradykinin tracer, antiserum 1:10,000, 4 °C for 24 h, gamma counter, measurements in duplicate): 0.55 nM | ir-[Arg^0]-BK content after incubation in plasma [2]: did not alter the peptide contents; also recorded: not statistically different among various time points | integrity of spiked [Arg^0]-BK in plasma (conversion to BK) [3]: remained as a single ir-peak; also recorded: remained intact | potency in eliciting cardiovascular and antidipsogenic effects (eel): more potent than BK
